By IC50 is commonly meant the concentration at which inhibition is half-maximal. Low values mean greater potency, high ones weaker potency.

For the assay, the target named is T1, HSV-1 helicase–primase (HP) complex (UL5/UL52/UL8) (Human alphaherpesvirus 1 strain 17, UniProt P10189+P10236).
T1 sequence (P10189 1-882): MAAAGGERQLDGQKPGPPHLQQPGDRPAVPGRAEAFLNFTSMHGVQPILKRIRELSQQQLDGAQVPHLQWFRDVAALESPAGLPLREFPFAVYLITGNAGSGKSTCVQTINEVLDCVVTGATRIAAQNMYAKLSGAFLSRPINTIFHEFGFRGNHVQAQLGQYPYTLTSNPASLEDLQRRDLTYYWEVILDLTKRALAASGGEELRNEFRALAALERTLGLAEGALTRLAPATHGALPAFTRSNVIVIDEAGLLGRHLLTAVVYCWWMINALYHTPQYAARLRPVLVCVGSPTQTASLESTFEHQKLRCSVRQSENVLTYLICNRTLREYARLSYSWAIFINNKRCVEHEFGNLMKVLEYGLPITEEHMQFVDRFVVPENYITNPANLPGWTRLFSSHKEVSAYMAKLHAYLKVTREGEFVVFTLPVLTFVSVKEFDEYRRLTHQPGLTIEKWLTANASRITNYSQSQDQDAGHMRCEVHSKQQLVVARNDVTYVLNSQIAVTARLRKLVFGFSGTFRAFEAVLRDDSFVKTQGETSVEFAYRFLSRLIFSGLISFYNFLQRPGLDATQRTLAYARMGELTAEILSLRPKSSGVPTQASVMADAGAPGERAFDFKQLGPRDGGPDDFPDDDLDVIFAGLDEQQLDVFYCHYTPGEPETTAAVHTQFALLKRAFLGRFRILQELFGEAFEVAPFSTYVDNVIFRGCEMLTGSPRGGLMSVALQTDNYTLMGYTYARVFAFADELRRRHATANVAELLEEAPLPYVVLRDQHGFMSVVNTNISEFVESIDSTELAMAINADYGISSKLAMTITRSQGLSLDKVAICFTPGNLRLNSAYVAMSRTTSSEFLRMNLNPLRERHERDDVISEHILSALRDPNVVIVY
T1 sequence (P10236 1-1058): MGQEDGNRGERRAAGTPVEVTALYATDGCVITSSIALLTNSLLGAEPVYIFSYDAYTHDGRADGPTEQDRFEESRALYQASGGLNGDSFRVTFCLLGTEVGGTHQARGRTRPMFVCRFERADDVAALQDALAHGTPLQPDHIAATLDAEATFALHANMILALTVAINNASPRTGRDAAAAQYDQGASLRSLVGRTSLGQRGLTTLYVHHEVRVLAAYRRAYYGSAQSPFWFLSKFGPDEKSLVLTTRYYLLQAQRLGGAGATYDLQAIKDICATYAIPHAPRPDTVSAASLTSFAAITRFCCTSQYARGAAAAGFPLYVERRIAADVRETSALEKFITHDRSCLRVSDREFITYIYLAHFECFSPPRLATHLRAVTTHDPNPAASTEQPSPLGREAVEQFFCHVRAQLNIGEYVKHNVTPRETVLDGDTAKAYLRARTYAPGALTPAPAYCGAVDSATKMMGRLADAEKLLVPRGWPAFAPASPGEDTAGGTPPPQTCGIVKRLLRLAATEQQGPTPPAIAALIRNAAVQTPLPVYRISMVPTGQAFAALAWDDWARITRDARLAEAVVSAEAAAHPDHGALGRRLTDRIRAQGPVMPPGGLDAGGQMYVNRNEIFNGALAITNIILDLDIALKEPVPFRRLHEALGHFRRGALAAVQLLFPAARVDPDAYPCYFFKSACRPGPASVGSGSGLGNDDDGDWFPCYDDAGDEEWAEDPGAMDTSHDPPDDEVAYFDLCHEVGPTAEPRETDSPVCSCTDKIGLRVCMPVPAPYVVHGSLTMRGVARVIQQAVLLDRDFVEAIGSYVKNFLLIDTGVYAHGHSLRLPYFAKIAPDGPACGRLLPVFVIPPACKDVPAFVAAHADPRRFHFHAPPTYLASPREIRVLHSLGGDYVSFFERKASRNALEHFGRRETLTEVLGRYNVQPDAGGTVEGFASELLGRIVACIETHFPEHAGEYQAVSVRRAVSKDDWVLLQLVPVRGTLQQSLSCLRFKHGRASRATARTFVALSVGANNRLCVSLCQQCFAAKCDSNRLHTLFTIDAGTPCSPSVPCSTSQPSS
T1 sequence (P10192 1-750 partner): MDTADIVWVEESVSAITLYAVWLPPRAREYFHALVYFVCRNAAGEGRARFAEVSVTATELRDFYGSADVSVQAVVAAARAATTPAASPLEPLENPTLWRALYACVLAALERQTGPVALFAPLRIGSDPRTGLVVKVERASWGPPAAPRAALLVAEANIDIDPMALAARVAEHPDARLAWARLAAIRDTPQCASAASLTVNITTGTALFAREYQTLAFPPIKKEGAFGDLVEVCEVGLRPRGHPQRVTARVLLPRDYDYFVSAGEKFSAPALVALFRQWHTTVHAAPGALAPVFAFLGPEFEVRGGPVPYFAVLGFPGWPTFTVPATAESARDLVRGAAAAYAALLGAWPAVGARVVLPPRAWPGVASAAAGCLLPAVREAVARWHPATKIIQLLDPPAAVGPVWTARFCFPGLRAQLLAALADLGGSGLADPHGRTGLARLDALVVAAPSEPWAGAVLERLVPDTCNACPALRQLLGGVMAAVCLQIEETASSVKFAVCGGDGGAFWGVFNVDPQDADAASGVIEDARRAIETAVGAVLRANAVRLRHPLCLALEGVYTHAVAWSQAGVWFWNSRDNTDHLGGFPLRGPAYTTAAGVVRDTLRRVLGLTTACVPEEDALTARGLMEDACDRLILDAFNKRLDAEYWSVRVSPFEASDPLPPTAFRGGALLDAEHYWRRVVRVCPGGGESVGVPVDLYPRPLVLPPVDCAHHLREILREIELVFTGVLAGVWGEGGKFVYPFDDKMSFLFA
As to the kind of experiment: fluorescent forked-DNA unwinding. Type of assay: biochemical.

The compound `Cc1cccc(C)c1N(CC(=O)Nc1ccc(-c2ncon2)cc1)C(=O)C1CCS(=O)(=O)CC1` [AMNV, amenamevir] gave an IC50 of 3.5 nM.

`Cc1nc(N(C)C(=O)Cc2ccc(-c3ccccn3)cc2)sc1S(N)(=O)=O` [PTV, pritelivir] displayed an IC50 of 11.1 nM.

The values are drawn from article PMC12669039 (Nature Microbiology, 2025).
